Measurements taken from US7763626B2, “Compositions and method for enhancing the therapeutic activity of opiods in treatment of pain” (Trustees of Dartmouth College, priority 2004, dated 2010).

Assays:
Assay type in all cases: in vivo, rat
Male Sprague-Dawley rats [1] = test: Morphine tolerance model, acute intrathecal morphine evaluated by thermal and mechanical test paradigms
Protocol: (§1) Male Sprague-Dawley rats (175-200 grams, Harlan, Indianapolis, Ind.) were divided into two groups (n=8 per group). Rats received subcutaneous injections of either saline or morphine (10 mg/kg; Sigma, St. Louis, Mo.) twice daily at 0800 to 0900 and 1600-1700 hour for 5 days in order to induce opioid tolerance. Chronic morphine withdrawal-induced hyperalgesia and allodynia were assessed in the animals 16 hours after the last injection of morphine. Following the recording of morphine withdrawal-induced hyperalgesia and allodynia, animals were treated with morphine (5 microgram) acutely via lumbar intrathecal injection to study the expression of morphine tolerance. Acute analgesic activity or intrathecal morphine in morphine-tolerant and chronic aline-treated rats were evaluated by mechanical (Analgesy-Meter) and thermal (tail-flick) test paradigms. Behaviors recorded prior to the acute administration of intrathecal morphine served as the basal latency measures.
With an understanding of the effects of morphine alone, separate groups of rats (n=8) received with saline or morphine (10 mg/kg subcutaneously, twice daily for 5 days) and also received once daily injections (at 1100 to 1200 hour) of propentofylline (1 and 10 micrograms) or saline via direct lumbar puncture during the induction of morphine tolerance. Again, chronic morphine withdrawal-induced hyperalgesia and allodynia were assessed in the animals 16 hours after the last subcutaneous morphine injection. […] As before, the acute analgesic activity of intrathecal morphine in morphine-tolerant and saline-injected rats was evaluated by mechanical (Analgesy-Meter) and thermal (tail-flick) test paradigms. Behavior recorded prior to the acute administration of intrathecal morphine served as the basal latency.
(§2) In blinded testing, rats were subjected to sequential series of 10 tactile stimulations to the dorsal surface of the ipsilateral hindpaw using […] von Frey filaments (Stoelting Co., WoodDale, Ill.) sequentially. The number of foot withdrawals to this normally non-noxious stimulus determined mechanical allodynia. Mechanical sensitivity was assessed by recording the total number of responses elicited during three successive trials separated by at least 10 minutes. The pressure required to elicit paw withdrawal, the paw pressure threshold was determined.
Thermal nociceptive thresholds were evaluated by the hot water tail-flick test that has been described previously (Bian, D. et al. 1999. Brain Res. 831:55-63). […] Again, the total number of responses elicited during three successive trials separated by at least 10 minutes was recorded and then expressed as the % maximal possible effect. […]

Male Sprague-Dawley rats [2] = test: Mechanical allodynia (von Frey filaments), morphine withdrawal
Protocol: as §1
With an understanding of the effects of morphine alone, separate groups of rats (n=8) received with saline or morphine (10 mg/kg subcutaneously, twice daily for 5 days) and also received once daily injections (at 1100 to 1200 hour) of propentofylline (1 and 10 micrograms) or saline via direct lumbar puncture during the induction of morphine tolerance. Again, chronic morphine withdrawal-induced hyperalgesia and allodynia were assessed in the animals 16 hours after the last subcutaneous morphine injection. Following the recording of morphine withdrawal-induced hyperalgesia and allodynia, animals were treated with morphine (5 micrograms) acutely via lumbar puncture to study the expression of morphine tolerance. As before, the acute analgesic activity of intrathecal morphine in morphine-tolerant and saline-injected rats was evaluated by mechanical (Analgesy-Meter) and thermal (tail-flick) test paradigms. Behavior recorded prior to the acute administration of intrathecal morphine served as the basal latency.
Mechanical sensitivity was measured as the frequency of foot withdrawals elicited by a defined mechanical stimulus. Each rat, under unrestrained conditions, was placed beneath an inverted, ventilated Plexiglas cage upon an elevated aluminum screen surface with 1 cm mesh openings. Animals had been previously acclimated to the environment and the experimenter.
as §2

GLAST protein = test: Western blot analysis of ipsilateral lumbar spinal cord; details: day 4
Protocol: (§3) Experiments were performed to determine how propentofylline-induced suppression of glial activation contribute to reduced behavioral hypersensitivity after nerve injury. In a preventative paradigm, 10 μg of propentofylline (Sigma) to male Sprague-Dawley rats in 40 μl of sterile saline, or saline vehicle alone was administered intrathecally (i.t.) by lumbar puncture at the L4/5 level under brief halothane anesthesia (n=6-8/group). Treatment began one hour prior to L5 spinal nerve transection and continued daily in the evening until day 4 or 12 post-transection. Rats received either an L5 spinal nerve transection or sham surgery on day 0. The development of mechanical allodynia was monitored as described above in the morning at approximately 15 hours post-propentofylline or saline injection. Rats were euthanized on day 4 or 12 post-transection and tissue was further processed by real time RT-PCR, Western blot, or immunohistochemistry for determination of levels and rate of synthesis of the glutamate transporters GLT-1 and GLAST.
(§4) Tissue was collected from 4-5 rats/group on postoperative days 4 or 12. […]
(§5) Protein obtained from L5 lumbar spinal cord was quantified using the Lowry method (DC assay, Bio-Rad, Richmond, Calif.). […]

GLT-1 protein = test: as above; details: day 12
Protocol: as §3, §4, §5

[3] = propentofylline 10 micrograms intrathecally for 5 days

Compound: CCCn1cnc2c1c(=O)n(CCCCC(C)=O)c(=O)n2C [propentofylline]
- expression of spinal nociceptive tolerance to intrathecal morphine (5 micrograms) (Male Sprague-Dawley rats [1]; propentofylline 1 and 10 micrograms intrathecally for 5 days during induction of morphine tolerance, thermal and mechanical test paradigms): significantly attenuated
- anti-nociceptive activity of acute intrathecal morphine (5 micrograms) in chronic saline-treated rats (Male Sprague-Dawley rats [1]; [3]): no effect
- nociceptive threshold in saline-treated rats (Male Sprague-Dawley rats [1]; [3]): no effect
- morphine withdrawal-induced mechanical allodynia (Male Sprague-Dawley rats [2]; 16 hours after last morphine injection (10 mg/kg s.c. twice daily 5 days), propentofylline 1 and 10 micrograms intrathecally for 5 days during induction of tolerance): significantly attenuated
- Mechanical allodynia (2 grams) (Male Sprague-Dawley rats [2]; number of foot withdrawals, 2 grams von Frey filament, morphine 10 mg/kg s.c. twice daily 5 days and/or propentofylline 10 micrograms intrathecally): 0
- Mechanical allodynia (12 grams) (Male Sprague-Dawley rats [2]; number of foot withdrawals, 12 grams von Frey filament, morphine 10 mg/kg s.c. twice daily 5 days and/or propentofylline 10 micrograms intrathecally): 0
- GLAST protein compared with saline-treated injured rats (GLAST protein): significant decrease
- GLT-1 protein compared with L5 spinal nerve transection alone (GLT-1 protein): significantly elevated
